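Compound exposure: 48 hours, 5 concentrations, 96-well plates. GI50 = concentration required for 50% inhibition of growth. Definition used: TGI = concentration required for complete inhibition of growth.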
Legend:
Experiment in all cases: inhibition of tumour cell growth, NCI panel, 48 h
MCF7 breast = tested on: MCF7 breast
HOP-92 NSCLC = tested on: HOP-92 NSCLC
SF-295 CNS = tested on: SF-295 CNS
UACC-257 melanoma = tested on: UACC-257 melanoma
KM12 colon = tested on: KM12 colon
EKVX NSCLC = tested on: EKVX NSCLC
NCI/ADR-RES ovarian = tested on: NCI/ADR-RES ovarian
SN12C renal = tested on: SN12C renal
NCI-H460 lung = tested on: NCI-H460 lung
HS 578T breast = tested on: HS 578T breast
SF-539 CNS = tested on: SF-539 CNS
OVCAR-3 ovarian = tested on: OVCAR-3 ovarian
SNB-19 CNS = tested on: SNB-19 CNS
786-0 renal = tested on: 786-0 renal
SNB-75 CNS = tested on: SNB-75 CNS
A498 renal = tested on: A498 renal
OVCAR-5 ovarian = tested on: OVCAR-5 ovarian
RXF 393 renal = tested on: RXF 393 renal
SK-MEL-28 melanoma = tested on: SK-MEL-28 melanoma
NCI-H23 lung = tested on: NCI-H23 lung
COLO 205 colon = tested on: COLO 205 colon
TK-10 renal = tested on: TK-10 renal
SK-MEL-5 melanoma = tested on: SK-MEL-5 melanoma
ACHN renal = tested on: ACHN renal
HCT-116 colon = tested on: HCT-116 colon
HCC-2998 colon = tested on: HCC-2998 colon
UO-31 renal = tested on: UO-31 renal
HOP-62 NSCLC = tested on: HOP-62 NSCLC
CAKI-1 renal = tested on: CAKI-1 renal
MALME-3M melanoma = tested on: MALME-3M melanoma
OVCAR-8 ovarian = tested on: OVCAR-8 ovarian
CCRF-CEM leukemia = tested on: CCRF-CEM leukemia
HCT-15 colon = tested on: HCT-15 colon
RPMI-8226 leukemia = tested on: RPMI-8226 leukemia
UACC-62 melanoma = tested on: UACC-62 melanoma
T-47D breast = tested on: T-47D breast
BT-549 breast = tested on: BT-549 breast
HL-60(TB) leukemia = tested on: HL-60(TB) leukemia
IGROV1 ovarian = tested on: IGROV1 ovarian
MOLT-4 leukemia = tested on: MOLT-4 leukemia
SF-268 CNS = tested on: SF-268 CNS
MDA-MB-231 breast = tested on: MDA-MB-231 breast
HT29 colon = tested on: HT29 colon
U251 CNS = tested on: U251 CNS
NCI-H226 lung = tested on: NCI-H226 lung
DU-145 prostate = tested on: DU-145 prostate
NCI-H522 lung = tested on: NCI-H522 lung
M14 melanoma = tested on: M14 melanoma
SK-OV-3 ovarian = tested on: SK-OV-3 ovarian
MDA-MB-435 = tested on: MDA-MB-435
OVCAR-4 ovarian = tested on: OVCAR-4 ovarian
LOX IMVI melanoma = tested on: LOX IMVI melanoma
A549 NSCLC = tested on: A549 NSCLC
SK-MEL-2 melanoma = tested on: SK-MEL-2 melanoma
SW-620 colon = tested on: SW-620 colon
PC-3 prostate = tested on: PC-3 prostate
SR leukemia = tested on: SR leukemia
K-562 leukemia = tested on: K-562 leukemia

CC(C)=CCC[C@](C)(O)[C@H]1CC[C@]2(C)[C@@H]1CC[C@@H]1[C@@]3(C)CC/C(=N/O)C(C)(C)[C@@H]3CC[C@]12C
GI50 (MCF7 breast): 4.2 µM | TGI (MCF7 breast): > 100 µM | GI50 (HOP-92 NSCLC): 7.48 µM | TGI (HOP-92 NSCLC): 26.2 µM | GI50 (SF-295 CNS): 12.2 µM | TGI (SF-295 CNS): 42.3 µM | GI50 (UACC-257 melanoma): 29.5 µM | TGI (UACC-257 melanoma): > 100 µM | GI50 (KM12 colon): 12.5 µM | TGI (KM12 colon): > 100 µM | GI50 (EKVX NSCLC): 10.1 µM | TGI (EKVX NSCLC): > 100 µM | GI50 (NCI/ADR-RES ovarian): 18.9 µM | TGI (NCI/ADR-RES ovarian): > 100 µM | GI50 (SN12C renal): 8.48 µM | TGI (SN12C renal): 35.2 µM | GI50 (NCI-H460 lung): 5.54 µM | TGI (NCI-H460 lung): > 100 µM | GI50 (HS 578T breast): 20.2 µM | TGI (HS 578T breast): > 100 µM | GI50 (SF-539 CNS): 24.3 µM | TGI (SF-539 CNS): > 100 µM | GI50 (OVCAR-3 ovarian): 10.6 µM | TGI (OVCAR-3 ovarian): 39.2 µM | GI50 (SNB-19 CNS): 12.2 µM | TGI (SNB-19 CNS): > 100 µM | GI50 (786-0 renal): 14.3 µM | TGI (786-0 renal): 69.3 µM | GI50 (SNB-75 CNS): 25.4 µM | TGI (SNB-75 CNS): > 100 µM | GI50 (A498 renal): 51.2 µM | TGI (A498 renal): > 100 µM | GI50 (OVCAR-5 ovarian): 22.2 µM | TGI (OVCAR-5 ovarian): > 100 µM | GI50 (RXF 393 renal): 8.23 µM | TGI (RXF 393 renal): 38.4 µM | GI50 (SK-MEL-28 melanoma): 26.5 µM | TGI (SK-MEL-28 melanoma): > 100 µM | GI50 (NCI-H23 lung): 8.68 µM | TGI (NCI-H23 lung): 41.7 µM | GI50 (COLO 205 colon): 11.4 µM | TGI (COLO 205 colon): > 100 µM | GI50 (TK-10 renal): 18 µM | TGI (TK-10 renal): 63.5 µM | GI50 (SK-MEL-5 melanoma): 19.4 µM | TGI (SK-MEL-5 melanoma): > 100 µM | GI50 (ACHN renal): 11.6 µM | TGI (ACHN renal): 35.7 µM | GI50 (HCT-116 colon): 4.13 µM | TGI (HCT-116 colon): 27.2 µM | GI50 (HCC-2998 colon): 12.9 µM | TGI (HCC-2998 colon): 50.8 µM | GI50 (UO-31 renal): 16.9 µM | TGI (UO-31 renal): > 100 µM | GI50 (HOP-62 NSCLC): 11.1 µM | TGI (HOP-62 NSCLC): 40.9 µM | GI50 (CAKI-1 renal): 10.4 µM | TGI (CAKI-1 renal): 50.7 µM | GI50 (MALME-3M melanoma): 8.25 µM | TGI (MALME-3M melanoma): 32.6 µM | GI50 (OVCAR-8 ovarian): 12 µM | TGI (OVCAR-8 ovarian): 86.2 µM | GI50 (CCRF-CEM leukemia): 14.2 µM | TGI (CCRF-CEM leukemia): > 100 µM | GI50 (HCT-15 colon): 10.6 µM | TGI (HCT-15 colon): > 100 µM | GI50 (RPMI-8226 leukemia): 7.68 µM | TGI (RPMI-8226 leukemia): > 100 µM | GI50 (UACC-62 melanoma): 17.8 µM | TGI (UACC-62 melanoma): > 100 µM | GI50 (T-47D breast): 2.86 µM | TGI (T-47D breast): 88.1 µM | GI50 (BT-549 breast): 27.4 µM | TGI (BT-549 breast): > 100 µM | GI50 (HL-60(TB) leukemia): 8.69 µM | TGI (HL-60(TB) leukemia): > 100 µM | GI50 (IGROV1 ovarian): 20 µM | TGI (IGROV1 ovarian): 76.6 µM | GI50 (MOLT-4 leukemia): 10.1 µM | TGI (MOLT-4 leukemia): > 100 µM | GI50 (SF-268 CNS): 21.5 µM | TGI (SF-268 CNS): > 100 µM | GI50 (MDA-MB-231 breast): 9.95 µM | TGI (MDA-MB-231 breast): 37.4 µM | GI50 (HT29 colon): 3.41 µM | TGI (HT29 colon): 20.8 µM | GI50 (U251 CNS): 12.8 µM | TGI (U251 CNS): 49.4 µM | GI50 (NCI-H226 lung): 9.75 µM | TGI (NCI-H226 lung): 47.5 µM | GI50 (DU-145 prostate): 13.8 µM | TGI (DU-145 prostate): > 100 µM | GI50 (NCI-H522 lung): 13.5 µM | TGI (NCI-H522 lung): 99 µM | GI50 (M14 melanoma): 16.3 µM | TGI (M14 melanoma): > 100 µM | GI50 (SK-OV-3 ovarian): 25.7 µM | TGI (SK-OV-3 ovarian): > 100 µM | GI50 (MDA-MB-435): 21.4 µM | TGI (MDA-MB-435): > 100 µM | GI50 (OVCAR-4 ovarian): 13.9 µM | TGI (OVCAR-4 ovarian): > 100 µM | GI50 (LOX IMVI melanoma): 15.7 µM | TGI (LOX IMVI melanoma): 83 µM | GI50 (A549 NSCLC): 5.86 µM | TGI (A549 NSCLC): 62.9 µM | GI50 (SK-MEL-2 melanoma): 15.3 µM | TGI (SK-MEL-2 melanoma): 60.5 µM | GI50 (SW-620 colon): 6.98 µM | TGI (SW-620 colon): > 100 µM | GI50 (PC-3 prostate): 7.87 µM | TGI (PC-3 prostate): 35.9 µM | GI50 (SR leukemia): 7.65 µM | TGI (SR leukemia): 49.4 µM | GI50 (K-562 leukemia): 6.06 µM | TGI (K-562 leukemia): > 100 µM

Source: PubChem BioAssay (NCI)
